Here are results for six molecules from patent US20090186868A1, “Taxane Compound Having Azetidine Ring Structure” (Daiichi Sankyo Company Limited, priority 2005, published 2009).

The test system of series [1] is HCT116 (human colon cancer cell line). Nature of the series: Anti-cell activity (MTT) against human tumor cell line HCT116. The format is cell-based. The following applies: HCT-116, 72 h, HCT116, cultured three days, read-out: HCT116 (GI50 value, ng/mL). The method, then:
(§1) Three types of human tumor cell lines (all of the cells were obtained from American Type Culture Collection) were seeded on 96-well microplates as follows.
(§2) NCI-H460 (human lung cancer cell line): 5.0×10^2 cells/190 μL/well HCT-15 (P glycoprotein (P-gp) expressing human colon cancer cell line, J. Natl. Cancer Inst., 2001, 93:1234-1245): 1.0×10^3 cells/190 μL/well HCT116 (human colon cancer cell line): 1.0×10^3 cells/190 μL/well On the next day, each test compound was dissolved in 100% dimethyl sulfoxide (DMSO) at a concentration of 10 mg/mL. This solution was diluted with 0.01% Cremophor EL-PBS(−) (Cremophor EL: Sigma Chemical Co., St. Louis, Mo., USA, PBS: Invitrogen Corp., Carlsbad, Calif., USA), and 10 μL of the diluted solution was added to each well (final concentration: 100 to 0.000381 ng/mL). The cells were cultured for three days, and then […] of a 5 mg/mL solution of 3-(4,5-dimethylthiazol-2-yl)-2,5-diphenyl-2H-tetrazolium bromide (MTT, Sigma Chemical Co.) was added to each well. The cells were further cultured for 4 hours, and then the medium was removed by centrifugation. By adding 150 μL of DMSO to each well, the produced formazan product was dissolved. The absorbance of the solution was measured at 540 nm. The drug concentration suppressing cell proliferation of the drug addition group to 50% of the cell proliferation of the drug free group (GI50 value, ng/mL) was calculated, and used as an index of anti-cell activity.

The nature of series [2]: Solubility in first and second solution for disintegration test (Japanese Pharmacopoeia). The following applies: for solubility: thermodynamic from solid. It counts as physicochemical. As for the experimental part: Solubility of each compound was determined in the first solution for disintegration test according to Japanese Pharmacopoeia (henceforth referred to as the first solution, solution obtained by adding 7 mL of hydrochloric acid and water to 2.00 g of sodium chloride to dissolve sodium chloride and fill up the solution to 1000 mL, pH 1.2) and the second solution for disintegration test according to Japanese Pharmacopoeia (henceforth referred to as the second solution, solution obtained by adding 118 mL of 0.2 mol/L solution of sodium hydroxide to 6.80 g of potassium dihydrogenphosphate, adding water to the mixture to dissolve potassium dihydrogenphosphate and filling up the solution to 1000 mL, pH 6.8).
Each test compound was dissolved in 100% dimethyl sulfoxide (DMSO) at a concentration of 10 mM, and 50 μL of the solution was lyophilized. The lyophilized test compound was added with 250 μL of the first solution or second solution, and the mixture was stored at room temperature for 12 hours or longer under light shielding, and filtered (0.7 μm). The filtrate was taken in a volume of 90 μL, and added with 50% DMSO (90 μL) to obtain a two-fold diluted solubility sample. The two-fold dilution solubility sample was taken in a volume of 20 μL, and added with 50% DMSO (180 μL) to obtain a […] diluted solubility sample. Solubility of each test sample was determined by quantifying the test compound in the resulting diluted solubility test samples using high-performance liquid chromatography.

Series [3] deals with NCI-H460 (human lung cancer cell line). Nature of the series: Anti-cell activity (MTT) against human tumor cell line NCI-H460. The format is cell-based. The following applies: 72 h, NCI-H460, cultured three days, read-out: NCI-H460 (GI50 value, ng/mL). The method, then:
as §1, §2

Series [4] has as its system HCT-15 (P glycoprotein (P-gp) expressing human colon cancer cell line). The series is described as follows: Anti-cell activity (MTT) against human tumor cell line HCT-15. It counts as cell-based. The following applies: 72 h, HCT-15 (P-gp expressing), cultured three days, read-out: HCT-15 (GI50 value, ng/mL). The method, then: as §1, §2
Another series concerns B16 melanoma BL6. The series is described as follows: Antitumor effect in mice subcutaneously transplanted with B16 melanoma BL6. The format is in vivo, Mice (C57BL/6). The following applies: for Therapeutic index: MTD/MED; for Effective dose range: range from MED to MTD, antitumor effect of 58% or more considered effective. From the text: (§3) Mice (C57BL/6, Charles River Japan) were subcutaneously transplanted with B16 melanoma BL6 (Cancer Res., Poste, G., Fidler, I. J. et al., 1980, 40:1636; Bioorg. Med. Chem. Lett., Takeda, Y. et al., 2003, 13:185-190), or M5076 (obtained from Japanese Foundation for Cancer Research), which is a histiocytoma expressing P-gp. Four days after the transplantation in the case of B16 melanoma BL6, or 8 to 10 days after the transplantation in the case of M5076, each test compound suspended in a 0.5% aqueous solution of carboxymethylcellulose sodium, or dissolved in EtOH:Tween 80:5% glucose=5:5:90 (v/v %) was orally (po) or intravenously (iv) administered to the mice. Ten days after the administration in the case of B16 melanoma BL6, or 8 to 10 days after the administration in the case of M5076, the mice were dissected, and tumor weights were measured. The antitumor effect was calculated in accordance with the following equation.
(§4) [1−(Average tumor weight of compound administration group/average tumor weight of solvent administration group)]×100
(§5) An antitumor effect of 58% or more was considered effective (Int. J. Cancer, 1989, 43:637-44), and the maximum tolerance dose (MTD, maximum dose not causing death, mg/kg) and minimum effective dose (MED, mg/kg) showing effectiveness were obtained, respectively. The therapeutic index was calculated in accordance with the equation: MTD/MED.
(§6) ND means that the test was not performed. The effective dose range means the range of from MED to MTD.

Series [5] relates to M5076 (histiocytoma expressing P-gp). Nature of the series: Antitumor effect in mice subcutaneously transplanted with M5076. The format is in vivo, Mice (C57BL/6). The following applies: for Therapeutic index: MTD/MED; for Effective dose range: range from MED to MTD, antitumor effect of 58% or more considered effective.
Text: as §3, §4, §5, §6

Where [6] appears, read: aqueous buffer, second solution for disintegration test, pH 6.8, room temperature, 12 hours or longer, read-out: Solubility (μg/mL) pH 6.8.
Setting [7] is: simulated gastric fluid, first solution for disintegration test, pH 1.2, room temperature, 12 hours or longer, read-out: Solubility (μg/mL) pH 1.2.
Where [8] appears, read: first solution for disintegration test, pH 1.2, room temperature, 12 hours or longer.
The mark [9] stands for this setting: second solution for disintegration test, pH 6.8, room temperature, 12 hours or longer.

Converted amounts (≈) assume the structure as drawn. Read-outs that look alike come from different tables or passages of the source.

Regarding `CC(=O)O[C@H]1C(=O)[C@@]2(C)[C@H]([C@H](OC(=O)c3ccccc3)[C@]3(O)C[C@H](OC(=O)[C@H](O)[C@@H](NC(=O)c4ccccc4)c4ccccc4)C(C)=C1C3(C)C)[C@]1(OC(C)=O)CO[C@@H]1C[C@@H]2O` [Paclitaxel, reference compound], the GI50 was 1.71 ng/mL (≈ 0.002 µM) in series [1], 1.87 ng/mL (≈ 0.00219 µM) in series [3] and greater than 100 ng/mL in series [4]. In addition, the solubility was less than 4 µg/mL in series [2] (pH 1.2, simulated gastric fluid) and less than 4 µg/mL in series [2] (pH 6.8, aqueous buffer).

In the case of `CC(=O)O[C@@]12CO[C@@H]1CC[C@@]1(C)[C@@H]3O[C@H](CN4CC(C)(O)C4)O[C@@H]3C3=C(C)[C@@H](OC(=O)[C@H](O)[C@@H](NC(=O)OC(C)(C)C)c4ccccn4)C[C@@](O)([C@@H](OC(=O)c4ccccc4)[C@@H]12)C3(C)C` [Example 11, (1S,2S,3R,4S,5R,8R,9S,10R,13S)-4-(Acetoxy)-2-(benzoyloxy)-5,20-epoxy-1-hydroxy-9,10-[(1S)-2-(3-hydroxy-3-methylazetidino)ethylidenedioxy]tax-11-en-13-yl (2R,3S)-3-(tert-butoxycarbonylamino)-2-hydroxy-3-(2-pyridyl)propionate], the results for the GI50 in series [1], in series [3] and in series [4] were 0.173 ng/mL (≈ 0.000191 µM), 0.109 ng/mL (≈ 0.00012 µM) and 4.21 ng/mL (≈ 0.00465 µM), respectively. Further, the Therapeutic index in the series on B16 melanoma BL6 (B16 Melanoma BL6, po) amounted to 5.9. Moreover, the solubility in series [2] (setting [6]) is 170 µg/mL (≈ 188 µM); in series [2] (setting [7]) it was 1300 µg/mL (≈ 1430 µM).

Regarding `COC1CN(C[C@@H]2O[C@@H]3C4=C(C)[C@@H](OC(=O)[C@H](O)[C@@H](NC(=O)OC(C)(C)C)c5ncccc5F)C[C@@](O)([C@@H](OC(=O)c5ccccc5)[C@H]5[C@@](C)(CC[C@H]6OC[C@]65OC(C)=O)[C@@H]3O2)C4(C)C)C1` [Example 8, (1S,2S,3R,4S,5R,8R,9S,10R,13S)-4-(Acetoxy)-2-(benzoyloxy)-5,20-epoxy-1-hydroxy-9,10-[(1S)-2-(3-methoxyazetidino)ethylidenedioxy]tax-11-en-13-yl (2R,3S)-3-(tert-butoxycarbonylamino)-3-(3-fluoro-2-pyridyl)-2-hydroxypropionate], the GI50 amounted to 0.155 ng/mL (≈ 0.000168 µM) in series [1], 0.128 ng/mL (≈ 0.000139 µM) in series [3] and 0.236 ng/mL (≈ 0.000255 µM) in series [4]. Besides, the Therapeutic index is given as 2.9 in the series with B16 melanoma BL6 (B16 Melanoma BL6, po) and 1.4 in series [5] (M5076, po). The solubility in series [2] (setting [6]) was 10 µg/mL (≈ 10.8 µM); in series [2] (setting [7]), 600 µg/mL (≈ 649 µM). For the same molecule, the “Effective dose range” value in series [5] (M5076, po) lay within 21.0 to 30.0 mg/kg.

Take `CC(=O)O[C@@]12CO[C@@H]1CC[C@@]1(C)[C@@H]3O[C@H](CN4CCC4)O[C@@H]3C3=C(C)[C@@H](OC(=O)[C@H](O)[C@@H](NC(=O)OC(C)(C)C)C(F)F)C[C@@](O)([C@@H](OC(=O)c4ccccc4)[C@@H]12)C3(C)C` [Example 31, (1S,2S,3R,4S,5R,8R,9S,10R,13S)-4-(Acetoxy)-9,10-[(1S)-2-(azetidino)ethylidenedioxy]-2-(benzoyloxy)-5,20-epoxy-1-hydroxytax-1′-en-13-yl (2R,3R)-3-(tert-butoxycarbonylamino)-4,4-difluoro-2-hydroxybutyrate]: the Therapeutic index in the series on B16 melanoma BL6 (B16 Melanoma BL6, iv) amounted to 2.9; in the series with B16 melanoma BL6 (B16 Melanoma BL6, po), 2.0; in series [5] (M5076, iv), 1.0. The “Effective dose range” value was 3.43 to 10.0 mg/kg with B16 melanoma BL6 (B16 Melanoma BL6, iv); 8.82 to 18.0 mg/kg in the series on B16 melanoma BL6 (B16 Melanoma BL6, po); 10.0 mg/kg in series [5] (M5076, iv). Besides, the “Solubility (μg/mL) pH 1.2” value in series [2] (setting [8]) is 1000 μg/mL. Further, the “Solubility (μg/mL) pH 6.8” value in series [2] (setting [9]) came out at 160 μg/mL.

Regarding `CC(=O)O[C@@]12CO[C@@H]1CC[C@@]1(C)[C@@H]3O[C@H](CN4CCC4)O[C@@H]3C3=C(C)[C@@H](OC(=O)[C@H](O)[C@@H](NC(=O)OC(C)(C)C)c4ncco4)C[C@@](O)([C@@H](OC(=O)c4ccccc4)[C@@H]12)C3(C)C` [Example 41, (1S,2S,3R,4S,5R,8R,9S,10R,13S)-4-(Acetoxy)-9,10-[(1S)-2-(azetidino)ethylidenedioxy]-2-(benzoyloxy)-5,20-epoxy-1-hydroxytax-11-en-13-yl (2R,3R)-3-(tert-butoxycarbonylamino)-2-hydroxy-3-(2-oxazolyl)propionate], the Therapeutic index with B16 melanoma BL6 (B16 Melanoma BL6, iv) was 4.2; in the series on B16 melanoma BL6 (B16 Melanoma BL6, po), 2.9; in series [5] (M5076, iv), 1.4. Besides, the “Effective dose range” value with B16 melanoma BL6 (B16 Melanoma BL6, iv) was in the range of 5.29 to 22.0 mg/kg; in the series with B16 melanoma BL6 (B16 Melanoma BL6, po), 8.58 to 25.0 mg/kg; in series [5] (M5076, iv), 17.5 to 25.0 mg/kg. In series [2] (setting [8]), the “Solubility (μg/mL) pH 1.2” value worked out at 910 μg/mL. In series [2] (setting [9]), the “Solubility (μg/mL) pH 6.8” value worked out at 370 μg/mL.

For the molecule `CC(=O)O[C@@]12CO[C@@H]1CC[C@@]1(C)[C@@H]3O[C@H](CN4CCC4)O[C@@H]3C3=C(C)[C@@H](OC(=O)[C@H](O)[C@@H](NC(=O)OC(C)(C)C)c4ccccn4)C[C@@](O)([C@@H](OC(=O)c4ccccc4)[C@@H]12)C3(C)C` [Example 1, (1S,2S,3R,4S,5R,8R,9S,10R,13S)-4-(Acetoxy)-9,10-[(1S)-2-(azetidino)ethylidenedioxy]-2-(benzoyloxy)-5,20-epoxy-1-hydroxytax-11-en-13-yl (2R,3S)-3-(tert-butoxycarbonylamino)-2-hydroxy-3-(2-pyridyl)propionate], the results for the GI50 in series [1], in series [3] and in series [4] were 0.244 ng/mL (≈ 0.000279 µM), 0.19 ng/mL (≈ 0.000217 µM) and 1.14 ng/mL (≈ 0.0013 µM), respectively. This molecule also came in with a Therapeutic index in the series with B16 melanoma BL6 (B16 Melanoma BL6, po) of 2.9. Further, the results for the solubility in series [2] (setting [6]) and in series [2] (setting [7]) were 170 µg/mL (≈ 194 µM) and 1200 µg/mL (≈ 1370 µM), respectively.
